From PubChem BioAssay (NCI)
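48-hour exposure; five concentrations; linearly interpolated endpoints. The concentration for full growth arrest is given as TGI.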

Key:
Assay in all cases: NCI tumour cell line growth inhibition, 48 h
[1] = test system: DLD-1 colon
[2] = test system: DMS 114 small cell lung
[3] = test system: M19-MEL melanoma
[4] = test system: SNB-78 CNS
[5] = test system: XF 498 CNS
[6] = test system: P388 leukemia
[7] = test system: RXF-631 renal
[8] = test system: SN12K1 renal

| Compound | TGI [1] [µM] | TGI [2] [µM] | TGI [3] [µM] | TGI [4] [µM] | TGI [5] [µM] | TGI [6] [µM] | TGI [7] [µM] | TGI [8] [µM] |
| --- | --- | --- | --- | --- | --- | --- | --- | --- |
| O=C(CSc1nc(-c2ccccc2)c(-c2ccccc2)[nH]1)N/N=C/c1ccc(O)cc1 | > 100 | 57.5 | 51 | > 100 | 99.6 | – | – | – |
| COc1c2c(c3ccccc3c1O)C1C=CC2C1 (stereo unspecified) | 31.6 | 19.6 | 5.46 | – | 27.9 | – | – | – |
| O=C(O)c1ccc(C2=Cc3cc(Cl)ccc3OC2)cc1 | > 100 | > 100 | > 100 | > 100 | > 100 | – | – | – |
| C=C(NC(=O)C(=C)NC(=O)c1csc(C2=NC3c4csc(n4)C4NC(=O)c5csc(n5)C(C(C)(O)C(C)O)NC(=O)C5CSC(=N5)/C(=C/C)NC(=O)C(C(C)O)NC(=O)c5csc(n5)C3(CC2)NC(=O)C(C)NC(=O)C(=C)NC(=O)C(C)NC(=O)C(C(C)CC)NC2C=Cc3c(C(C)O)cc(nc3C2O)C(=O)OC4C)n1)C(N)=O (stereo unspecified) | 4.44 | 7.69 | 3.05 | > 100 | – | 0.19 | 18 | 2.57 |
| NC1=NS(=O)(=O)Nc2nc(-c3ccccc3)[nH]c21 | > 100 | > 100 | > 100 | > 100 | > 100 | – | – | – |
| O=C(c1ccccc1)C1S(=O)(=O)OCCOS1(=O)=O | > 100 | > 100 | > 100 | > 100 | > 100 | – | > 100 | – |
| COc1ccc([C@@H]2CC(=O)N2)cc1 | > 100 | > 100 | – | > 100 | > 100 | – | – | – |
| CCOC(=O)C(Cc1c[nH]c2cc([N+](=O)[O-])ccc12)NS(=O)(=O)c1ccc2ccccc2c1 (stereo unspecified) | 65.7 | 38.3 | 30.9 | 47.7 | 31.3 | – | – | – |
